Test results: patent US10934326B2, “Peripheral modifications on pocket-redesigned vancomycin analogs synergistically improve antimicrobial potency and durability” (priority 2016, dated 2021)

Legend:
[1] = system: vancomycin-resistant Enterococcus faecalis (VanB VRE, strain ATCC 51299); details: previously reported data; cited from earlier work
[2] = system: VanA VRE (E. faecalis BM 4166 and E. faecium ATCC BAA-2317); experiment: Cell wall permeability assay (propidium iodide uptake); assay type: cell-based, Enterococcus faecalis; Enterococcus faecium; details: 10 μM compound
[3] = system: vancomycin-sensitive Staphylococcus aureus (VSSA strain ATCC 25923); details: previously reported data; cited from earlier work
[4] = system: VSSA, MRSA, VanA and VanB VRE; details: cited from earlier work
[5] = system: vancomycin-resistant Enterococcus faecalis (VanA VRE, BM4166); details: BM 4166; previously reported data; cited from earlier work
[6] = system: methicillin and oxacillin-resistant Staphylococcus aureus subsp. aureus (MRSA strain ATCC 43300); details: previously reported data; cited from earlier work
[7] = system: VanA VRE (E. faecalis BM 4166 and E. faecium ATCC BAA-2317); experiment: Cell wall biosynthesis inhibition assay (accumulation of UDPMurNAc-pp 19); assay type: cell-based, Enterococcus faecalis; Enterococcus faecium; details: 35 μg/mL, tetracycline pretreated VanA VRE, 30 minutes, 37° C.
Source text: The inhibition of bacterial cell wall synthesis was established in an assay that quantitates the accumulation of the peptidoglycan precursor UDP-N-acetyl-muramyl-depsipentapeptide (Compound 19, UDPMurNAc-pp), resulting from inhibited cell wall incorporation following antibiotic treatment. […] This procedure was reduced in scale and modified to enlist reverse-phase HPLC separation, UV detection, and calibration curve determination of the amount of isolated 19, permitting use with limited sample sizes. A larger scale isolation and full characterization of 19 provided the material needed to establish a linear calibration curve.
The bacterial suspension was heated at 100° C. for 15 minutes to release cytosolic 19. The entire supernatant was analyzed by semi-preparative reverse-phase HPLC with a single injection and the amount of 19 was quantitated with use of the calibration curve.
Cultures of vancomycin-resistant Enterococcus faecalis (VanA VRE, BM4166) and Enterococcus faecium (VanA VRE, ATCC BAA-2317) were inoculated and grown in an orbital shaker at 37° C. in 100% brain-heart infusion broth for 12 hours. The above bacterial solution was subjected to a subculture to obtain fresh mid-log phase bacterial cells (total volume of bacterial suspension=5 mL, incubation time=6 hours, OD600=0.6). […] Vancomycin analogues were added and the mixture was incubated at 37° C. for a further 30 minutes.
After the bacteria were harvested (3000 rpm, 4° C., 20 minutes), this bacterial precipitate was washed and resuspended in 5 mM glucose and 5 mM HEPES buffer (500 μL, 1:1, pH=7.2). This bacterial suspension was heated at 100° C. for 15 minutes and centrifuged (13000 rpm, 25° C., 10 minutes). […] [*****Allen et al., Antimicrob. Agents Chemother. 1996, 40(10):2356-2362]; Liu et al., J. Am. Chem. Soc. 2001, 123:9916-9917.] The amount of UDP Mur N-Ac pentapeptide (19) was quantified by use of calibration curves for E. faecalis BM4166, and for E. faecium ATCC BAA-2317 based on the area under the curve (AUC).

[8] = system: Enterococcus faecium (VanA VRE, ATCC BAA-2317); details: previously reported data; cited from earlier work

CN[C@H](CC(C)C)C(=O)N[C@H]1C(=O)N[C@@H](CC(N)=O)C(=O)N[C@H]2C(=S)N[C@@H]3C(=O)N[C@H](C(=O)N[C@H](C(=O)O)c4cc(O)cc(O)c4-c4cc3ccc4O)[C@H](O)c3ccc(c(Cl)c3)Oc3cc2cc(c3OC2OC(CO)C(O)[C@H](O)[C@@H]2O[C@H]2CC(C)(NCc3ccc(-c4ccc(Cl)cc4)cc3)[C@H](O)[C@H](C)O2)Oc2ccc(cc2Cl)[C@H]1O (some centres unmarked) [Compound 6]
Antimicrobial Activity, MIC, VanB E. faecalis [1]: 2 µg/mL | induced cell membrane permeability (propidium uptake) [2]: Neither compound significantly impacts membrane permeability | Antimicrobial Activity, MIC, sensitive S. aureus [3]: 2 µg/mL | MICs (range over panel) [4]: 2 to 4 µg/mL | Antimicrobial Activity, MIC, VanA E. faecalis [5]: 4 µg/mL | Antimicrobial Activity, MIC, MRSA S. aureus [6]: 2 µg/mL | inhibition of bacterial cell wall synthesis (accumulation of 19) [7]: inhibit cell wall biosynthesis to a similar extent | Antimicrobial Activity, MIC, VanA E. faecium [8]: 4 µg/mL
